Reference: patent publication US20190085289A1, “COMPOSITIONS AND METHODS FOR PATHOGEN INACTIVATION OF PLATELETS” (Cerus Corporation, priority 2017, published 2019)

Experiments:
FCV = FCV inactivation with decreasing amounts of S-59 after pre-incubation, plaque assay; type: cell-based, feline calicivirus (FCV); settings: for FCV titer after UVA: UVA ~3 J/cm^2; for FCV log inactivation: vs 0 hr control titer 5.84
Description: An additional study was performed to evaluate the level of FCV inactivation with decreasing amounts of S-59 after extended incubation (e.g., pre-incubation) in PAS/Plasma. In this study, platelets in PAS/Plasma (65%/35%) were spiked with a stock of FCV at a 1:100 dilution. The FCV-spiked platelets were then split into 16 separate test units. Each unit was dosed with S-59 at approximately 150 μM, 90 μM, 30 μM or 15 μM concentration. Following the addition of S-59 in one of four dosing groups, the platelet units in each dosing group were incubated for 0, 4, 8 or 24 hr prior to illumination. A control sample was taken from each unit for virus titer determination and HPLC analysis of S-59 concentration pre-UVA treatment, followed by UVA light exposure at ˜3 J/cm^2 for photochemical treatment of the test samples. Following UVA treatment, the control and test samples were evaluated for inactivation of FCV using a standard virological plaque assay. […] Control titer at 0 hr pool used for all log inactivation calculations (5.84 log/mL).

[1] = Stability of S-59 in InterSol PAS protected from ambient light (HPLC); type: physicochemical; settings: for S-59 UV peak area (HPLC) / S-59 concentration (HPLC): 230 μM in InterSol PAS, room temp, protected from light
Description: Additional studies evaluated stability of the S-59 (amotosalen) pathogen inactivation compound formulated in a platelet additive solution (PAS), but protected from ambient light exposure. A 230 μM solution of S-59 was prepared in the commercially available PAS solution InterSol® (Fenwal Inc.) and maintained at room temperature protected from ambient light conditions. HPLC analysis was performed on samples at times listed in Table 2 for both S-59 and photoproducts.

[2] = Stability and photoconversion of S-59 in PAS/plasma with platelets and bacteria (HPLC); type: physicochemical; settings: for % S-59 conversion: after UVA
Description: Another study evaluated 24 hour stability and photoconversion of amotosalen (S-59) in PAS with plasma and platelets, in the presence of bacteria. Two ABO matched platelet units in 100% plasma were pooled, split into two units and InterSol® PAS added (e.g., 65/35). S-59 was added to the test unit at a concentration of 150 but not initially to the control unit. A log culture of K. pneumoniae (˜8 log cfu/mL) was added to the units at a target of ˜60 CFU/unit and the units were incubated in a platelets shaker at 22° C. for approximately 24 hours. At the end of incubation, S-59 was also added to the control unit at the same concentration and both control and test units were subjected to UVA light. Samples were taken pre- and post-UVA illumination for both units bacterial titer assay and HPLC. Post-illumination both units were subjected to a CAD processing step to remove residual amotosalen and photoproducts and stored on a platelet shaker for 7 days to confirm no growth of bacteria.

[3] = S-59 15 μM, pre-incubation 0 hr
[4] = S-59 15 μM, pre-incubation 4 hr
[5] = S-59 15 μM, pre-incubation 8 hr
[6] = S-59 15 μM, pre-incubation 24 hr
[7] = S-59 30 μM, pre-incubation 0 hr
[8] = S-59 30 μM, pre-incubation 4 hr
[9] = S-59 30 μM, pre-incubation 8 hr
[10] = S-59 30 μM, pre-incubation 24 hr
[11] = S-59 90 μM, pre-incubation 0 hr
[12] = S-59 90 μM, pre-incubation 4 hr
[13] = S-59 90 μM, pre-incubation 8 hr
[14] = S-59 90 μM, pre-incubation 24 hr
[15] = S-59 150 μM, pre-incubation 0 hr
[16] = S-59 150 μM, pre-incubation 4 hr
[17] = S-59 150 μM, pre-incubation 8 hr
[18] = S-59 150 μM, pre-incubation 24 hr

Cc1oc2c(C)c3oc(=O)cc(C)c3cc2c1COCCN [S-59, 3-(2-aminoethoxymethyl)-2,5,9-trimethylfuro[3,2-g]chromen-7-one]
FCV titer after UVA (FCV; [3]): 5.65 log PFU/mL | FCV log inactivation (FCV; [3]): 0.19 log/mL | FCV titer after UVA (FCV; [4]): 4.49 log PFU/mL | FCV log inactivation (FCV; [4]): 1.35 log/mL | FCV titer after UVA (FCV; [5]): 2.22 log PFU/mL | FCV log inactivation (FCV; [5]): 3.62 log/mL | FCV titer after UVA (FCV; [6]): 0.52 log PFU/mL | FCV log inactivation (FCV; [6]): 5.32 log/mL | FCV titer after UVA (FCV; [7]): 4.91 log PFU/mL | FCV log inactivation (FCV; [7]): 0.93 log/mL | FCV titer after UVA (FCV; [8]): 2.00 log PFU/mL | FCV log inactivation (FCV; [8]): 3.84 log/mL | FCV titer after UVA (FCV; [9]): <1.22 log PFU/mL | FCV log inactivation (FCV; [9]): 4.62 log/mL | FCV titer after UVA (FCV; [10]): <−0.22 log PFU/mL | FCV log inactivation (FCV; [10]): 5.62 log/mL | FCV titer after UVA (FCV; [11]): 4.90 log PFU/mL | FCV log inactivation (FCV; [11]): 0.94 log/mL | FCV titer after UVA (FCV; [12]): <0.22 log PFU/mL | FCV log inactivation (FCV; [12]): 5.62 log/mL | FCV titer after UVA (FCV; [13]): <−0.48 log PFU/mL | FCV log inactivation (FCV; [13]): 5.84 log/mL | FCV titer after UVA (FCV; [14]): <−0.30 log PFU/mL | FCV log inactivation (FCV; [14]): 5.84 log/mL | FCV titer after UVA (FCV; [15]): 4.33 log PFU/mL | FCV log inactivation (FCV; [15]): 1.51 log/mL | FCV titer after UVA (FCV; [16]): <0.22 log PFU/mL | FCV log inactivation (FCV; [16]): 5.62 log/mL | FCV titer after UVA (FCV; [17]): <−0.48 log PFU/mL | FCV log inactivation (FCV; [17]): 5.84 log/mL | FCV titer after UVA (FCV; [18]): <−0.48 log PFU/mL | FCV log inactivation (FCV; [18]): 5.84 log/mL | FCV inactivation (FCV; pre-incubation 4, 8 or 24 hours at 150 μM and 90 μM, 8 or 24 hours at 30 μM, 24 hours at 15 μM): greater than 4 logs | FCV inactivation (FCV; pre-incubation 4 hr, 30 μM S-59): ~4 logs | FCV inactivation (FCV; pre-incubation 8 hr, 15 μM S-59): greater than 3.5 logs | S-59 UV peak area (HPLC) ([1]; 5.5 hr): 3451.6489 | S-59 concentration (HPLC) ([1]; 5.5 hr): 232.74 µM | S-59 UV peak area (HPLC) ([1]; 21.5 hr): 3439.4907 | S-59 concentration (HPLC) ([1]; 21.5 hr): 231.93 µM | S-59 UV peak area (HPLC) ([1]; 28.5 hr): 3421.447 | S-59 concentration (HPLC) ([1]; 28.5 hr): 230.72 µM | S-59 UV peak area (HPLC) ([1]; 44 hr): 3425.1028 | S-59 concentration (HPLC) ([1]; 44 hr): 230.96 µM | S-59 UV peak area (HPLC) ([1]; 45.5 hr): 3399.0142 | S-59 concentration (HPLC) ([1]; 45.5 hr): 229.22 µM | S-59 UV peak area (HPLC) ([1]; 53 hr): 3421.4934 | S-59 concentration (HPLC) ([1]; 53 hr): 230.72 µM | S-59 UV peak area (HPLC) ([1]; 77 hr): 3446.6414 | S-59 concentration (HPLC) ([1]; 77 hr): 232.41 µM | S-59 UV peak area (HPLC) ([1]; T 0): 3393.0647 | S-59 concentration (HPLC) ([1]; T 0): 228.82 µM | loss of S-59 ([1]; InterSol PAS, protected from ambient light, at 77 hours): no loss | S-59 concentration stability ([2]; 24 hour incubation period, control and test units, with K. pneumoniae): stable | S-59 concentration ([2]; Control unit (S-59 added at end of ~24 h incubation), platelets + K. pneumoniae, T_24h, Avg.): 149 µM | S-59 concentration ([2]; Control unit (S-59 added at end of ~24 h incubation), T_24h, Replicate 1): 144 µM | S-59 concentration ([2]; Control unit (S-59 added at end of ~24 h incubation), T_24h, Replicate 2): 153 µM | S-59 concentration ([2]; Control unit (S-59 added at end of ~24 h incubation), T_Post-UVA, Avg.): 40 µM | S-59 concentration ([2]; Control unit (S-59 added at end of ~24 h incubation), T_Post-UVA, Replicate 1): 43 µM | S-59 concentration ([2]; Control unit (S-59 added at end of ~24 h incubation), T_Post-UVA, Replicate 2): 37 µM | % S-59 conversion ([2]; Control unit (S-59 added at end of ~24 h incubation), Avg.): 27% | % S-59 conversion ([2]; Control unit (S-59 added at end of ~24 h incubation), Replicate 1): 30% | % S-59 conversion ([2]; Control unit (S-59 added at end of ~24 h incubation), Replicate 2): 24% | S-59 concentration ([2]; Test unit (S-59 150 added before incubation), PAS/plasma platelets + K. pneumoniae, 22° C., T_0, Avg.): 152 µM | S-59 concentration ([2]; Test unit (S-59 added before incubation), platelets + K. pneumoniae, T_0, Replicate 1): 149 µM | S-59 concentration ([2]; Test unit (S-59 added before incubation), platelets + K. pneumoniae, T_0, Replicate 2): 155 µM | S-59 concentration ([2]; Test unit (S-59 added before incubation), platelets + K. pneumoniae, T_24h, Avg.): 153 µM | S-59 concentration ([2]; Test unit (S-59 added before incubation), T_24h, Replicate 1): 149 µM | S-59 concentration ([2]; Test unit (S-59 added before incubation), T_24h, Replicate 2): 157 µM | S-59 concentration ([2]; Test unit (S-59 added before incubation), T_Post-UVA, Avg.): 26 µM | S-59 concentration ([2]; Test unit (S-59 added before incubation), T_Post-UVA, Replicate 1): 27 µM | S-59 concentration ([2]; Test unit (S-59 added before incubation), T_Post-UVA, Replicate 2): 24 µM | % S-59 conversion ([2]; Test unit (S-59 added before incubation), Avg.): 17% | % S-59 conversion ([2]; Test unit (S-59 added before incubation), Replicate 1): 18% | % S-59 conversion ([2]; Test unit (S-59 added before incubation), Replicate 2): 15%
